Among the data in patent US4061630A, “7-Substituted-ureido-3-carbamoyloxymethyl cephalosporin antibiotics” (Eli Lilly and Company, priority 1976, dated 1977) are MIC and pKa values, retold here.

In brackets after ≈: the same amount, converted by molar mass. A value given as a limit tells only on which side of the number the result lay.

Data set [1] has as its system Shigella sp. As to the kind of experiment: in vitro antibiotic activity by the Gradient Plate method, Shigella. The data set is classed as cell-based. Particulars: read-out: Minimum Inhibitory Concentration vs. Shigella sp. On the procedure: (§1) The antibiotic activity for these compounds is illustrated by the activity data in the following Table II. In the Table, the compounds designated by the groups R, R1 and R2 have reference to the following formula I [drawing 35] and the in vitro activity was determined by the Gradient Plate method.

Data set [2] relates to Escherichia coli. Description: in vitro antibiotic activity by the Gradient Plate method, E. coli. The data set is classed as cell-based. Particulars: read-out: Minimum Inhibitory Concentration vs. Escherichia coli. As to the method: as §1
Data set [3] has as its system Klebsiella pneumoniae. Description: in vitro antibiotic activity by the Gradient Plate method, Klebsiella. The data set is classed as cell-based. Conditions: read-out: Minimum Inhibitory Concentration vs. Klebsiella pneumoniae. As to the method:
as §1

Data set [4] relates to Enterobacter aerogenes. Description: in vitro antibiotic activity by the Gradient Plate method, Enterobacter. Particulars: Klebsiella aerogenes, read-out: Minimum Inhibitory Concentration vs. Enterobacter aerogenes. The data set is classed as cell-based. On the procedure:
as §1

Data set [5] deals with Salmonella heidelberg. As to the kind of experiment: in vitro antibiotic activity by the Gradient Plate method, Salmonella. The data set is classed as cell-based. Conditions: Salmonella enterica, read-out: Minimum Inhibitory Concentration vs. Salmonella heidelberg. On the procedure: as §1
In data set [6] the test system is Pseudomonas aeruginosa. As to the kind of experiment: in vitro antibiotic activity by the Gradient Plate method, Pseudomonas. The data set is classed as cell-based. Particulars: read-out: Minimum Inhibitory Concentration vs. Pseudomonas aeruginosa. As to the method:
as §1

The subject of data set [7] is Serratia marcescens. Description: in vitro antibiotic activity by the Gradient Plate method, Serratia. The class given is cell-based. Conditions: read-out: Minimum Inhibitory Concentration vs. Serratia marcescens. As to the method:
as §1

Data set [8] can be described thus: Titration 66 percent DMF. The data set is classed as physicochemical. Particulars: 66% dmf. The source says: IR (KBr): 1770 cm^-1 (β-lactam carbonyl) U.V. (methanol): γ max 278 (ε17,921) Titration 66 percent DMF: pKa 4.98.

Consider `CN(C(=O)C=Cc1ccccc1)C(=O)NC(C(=O)NC1C(=O)N2C(C(=O)O)=C(COC(N)=O)CSC12)c1ccccc1` (stereo not drawn), for which the MIC in data set [1] was determined as 1 µg/mL (≈ 1.68 µM); in data set [2], 5.5 µg/mL (≈ 9.27 µM); in data set [3], 0.3 µg/mL (≈ 0.505 µM); in data set [4] it was 8 µg/mL (≈ 13.5 µM); in data set [5], 6.5 µg/mL (≈ 10.9 µM); in data set [6], 21.8 µg/mL (≈ 36.7 µM). Moreover, the MIC in data set [7] turned out to be 8 µg/mL (≈ 13.5 µM).

Turning to `CNC(=O)NC(=O)NC(C(=O)NC1C(=O)N2C(C(=O)O)=C(COC(N)=O)CSC12)c1ccc(O)cc1` (stereo not drawn), the MIC in data set [1] was 17.3 µg/mL (≈ 33.1 µM); in data set [2], 27.2 µg/mL (≈ 52.1 µM); in data set [3], 100 µg/mL (≈ 191 µM); in data set [4], 18.5 µg/mL (≈ 35.4 µM); in data set [5], 12.5 µg/mL (≈ 23.9 µM); in data set [6] it was 33.3 µg/mL (≈ 63.7 µM). Also, the MIC in data set [7] was above 200 µg/mL.

As for `CNC(=O)N(C)C(=O)NC(C(=O)NC1C(=O)N2C(C(=O)O)=C(COC(N)=O)CSC12)c1ccc(O)cc1` (stereo not drawn), the MIC in data set [1] was found to be 4.5 µg/mL (≈ 8.39 µM); in data set [2], 10 µg/mL (≈ 18.6 µM); in data set [3], 10 µg/mL (≈ 18.6 µM); in data set [4] it was 5.5 µg/mL (≈ 10.3 µM); in data set [5], 5 µg/mL (≈ 9.32 µM); in data set [6] it was 13.5 µg/mL (≈ 25.2 µM). Further, the MIC in data set [7] worked out at 160 µg/mL (≈ 298 µM).

With `CNC(=O)N(C)C(=O)NC(C(=O)NC1C(=O)N2C(C(=O)O)=C(COC(N)=O)CSC12)c1ccccc1` (stereo not drawn), the MIC in data set [1] worked out at 7 µg/mL (≈ 13.4 µM); in data set [2], 17.8 µg/mL (≈ 34.2 µM); in data set [3] it was 7.8 µg/mL (≈ 15 µM); in data set [4], 19.5 µg/mL (≈ 37.5 µM); in data set [5], 8.5 µg/mL (≈ 16.3 µM); in data set [6], 18.3 µg/mL (≈ 35.2 µM). For the same molecule, in data set [7], the MIC worked out at 67.5 µg/mL (≈ 130 µM).

On to `CNC(=O)NC(=O)NC(C(=O)NC1C(=O)N2C(C(=O)O)=C(COC(N)=O)CSC12)c1ccccc1` (stereo not drawn), for which the MIC came out at 21.5 µg/mL (≈ 42.4 µM) in data set [1]; 51.3 µg/mL (≈ 101 µM) in data set [2]; 35 µg/mL (≈ 69.1 µM) in data set [3]; 65 µg/mL (≈ 128 µM) in data set [4]; 30 µg/mL (≈ 59.2 µM) in data set [5]; 22.8 µg/mL (≈ 45 µM) in data set [6]. The MIC in data set [7] was above 200 µg/mL.

As for `CS(=O)(=O)N1CCN(C(=O)NC(C(=O)NC2C(=O)N3C(C(=O)O)=C(COC(N)=O)CSC23)c2ccc(O)cc2)C1=O` (stereo not drawn), the MIC in data set [1] is 4.3 µg/mL (≈ 7.02 µM); in data set [2] it was 10 µg/mL (≈ 16.3 µM); in data set [3], 5.5 µg/mL (≈ 8.98 µM); in data set [4], 10 µg/mL (≈ 16.3 µM); in data set [5], 4.8 µg/mL (≈ 7.84 µM); in data set [6] it was 47.5 µg/mL (≈ 77.5 µM). Also, the MIC in data set [7] amounted to 100 µg/mL (≈ 163 µM).

As to `NC(=O)OCC1=C(C(=O)O)N2C(=O)C(NC(=O)C(NC(=O)NC(=O)c3ccco3)c3ccc(O)cc3)C2SC1` (stereo not drawn), the MIC in data set [1] came to 12.5 µg/mL (≈ 22.3 µM); in data set [2] it was 17.2 µg/mL (≈ 30.7 µM); in data set [3], 16 µg/mL (≈ 28.6 µM); in data set [4] it was 17.2 µg/mL (≈ 30.7 µM); in data set [5] it was 16 µg/mL (≈ 28.6 µM); in data set [6] it was 10 µg/mL (≈ 17.9 µM). Besides, the MIC in data set [7] was determined as 120 µg/mL (≈ 214 µM).

Consider `CNC(=O)OCC1=C(C(=O)O)N2C(=O)C(NC(=O)C(NC(=O)N(C)C(=O)NC)c3ccccc3)C2SC1` (stereo not drawn) [7-[α-(3-Methylcarbamoyl-3-methyl-1-ureido)-α-phenylacetamido]-3-N-methylcarbamoyloxymethyl-3-cephem-4-carboxylic acid], for which the MIC was 5.5 µg/mL (≈ 10.3 µM) in data set [1]; 15.5 µg/mL (≈ 29 µM) in data set [2]; 7 µg/mL (≈ 13.1 µM) in data set [3]; 19.5 µg/mL (≈ 36.5 µM) in data set [4]; 8.5 µg/mL (≈ 15.9 µM) in data set [5]; 30 µg/mL (≈ 56.1 µM) in data set [6]. Further, the MIC in data set [7] was found to be 42.5 µg/mL (≈ 79.5 µM).

In data set [8], `CN(C(=O)C=Cc1ccccc1)C(=O)N[C@@H](C(=O)NC1C(=O)N2C(C(=O)O)=C(COC(N)=O)CSC12)c1ccccc1` (stereo partly drawn) [Example 8, 7-[D-α-(3-Cinnamoyl-3-methyl-1-ureido)-α-phenylacetamido]-3-carbamoyloxymethyl-3-cephem-4-carboxylic acid] showed a pKa of 4.98.
